From patent US20060275812A1, “Assay for agonists and antagonists of ion channels and for regulators of genetic expression” (University of Pittsburgh of the Commonwealth System of …, priority 2005, published 2006)
“Also recorded” adds a separate entry of the source.

Legend:
TRPV1 [1] = target: T1, TRPV1 (Rattus norvegicus, UniProt O35433); assay: Intracellular calcium measurement (FURA-2); format: cell-based
T1 construct: expressed in transfected cells; host or cells: ICP4/ICP27-complementing 7b cells (Vero-derived) infected with HSV-1 vector vTT
T1 sequence (O35433 whole entry): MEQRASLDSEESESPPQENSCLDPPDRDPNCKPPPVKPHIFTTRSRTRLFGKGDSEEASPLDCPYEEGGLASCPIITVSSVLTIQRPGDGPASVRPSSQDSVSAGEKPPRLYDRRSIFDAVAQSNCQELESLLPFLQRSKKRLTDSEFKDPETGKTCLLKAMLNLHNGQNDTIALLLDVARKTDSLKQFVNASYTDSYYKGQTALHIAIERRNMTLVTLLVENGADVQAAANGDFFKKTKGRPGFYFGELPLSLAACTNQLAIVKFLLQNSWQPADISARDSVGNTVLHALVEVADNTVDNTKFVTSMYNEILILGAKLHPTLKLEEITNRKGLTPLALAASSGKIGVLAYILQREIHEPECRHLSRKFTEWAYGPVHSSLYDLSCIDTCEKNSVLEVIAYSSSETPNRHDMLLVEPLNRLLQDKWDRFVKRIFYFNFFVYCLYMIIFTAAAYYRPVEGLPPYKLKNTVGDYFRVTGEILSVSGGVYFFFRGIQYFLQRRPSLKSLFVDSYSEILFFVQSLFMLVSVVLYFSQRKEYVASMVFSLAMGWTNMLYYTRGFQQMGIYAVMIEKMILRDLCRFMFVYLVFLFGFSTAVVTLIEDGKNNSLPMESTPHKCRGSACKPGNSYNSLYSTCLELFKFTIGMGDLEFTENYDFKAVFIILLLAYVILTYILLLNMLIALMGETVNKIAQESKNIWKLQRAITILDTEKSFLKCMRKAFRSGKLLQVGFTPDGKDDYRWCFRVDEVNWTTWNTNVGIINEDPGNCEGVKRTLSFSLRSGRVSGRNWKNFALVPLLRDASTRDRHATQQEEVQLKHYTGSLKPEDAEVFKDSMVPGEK
Procedure: Free intracellular calcium was measured by photon scanning on a dual excitation fluorimeter (PTI, Lawrenceville, N.J.). vTT or QOZ infected 7b cells were plated in 6 well plates containing 13.5×20 mm coverslips. Infected cells (8 hpi, 3 PFU/cell) were rinsed with 1× Hank's balanced salt solution (HBSS) and loaded with 2 μM FURA-2 (Molecular Probes Inc., Eugene, Oreg.) (Sneddon et al., 2000) for 1 hour at 37° C. in a 5% CO2 incubator. Coverslips with FURA-2 loaded cells were then placed in a cuvette containing HBBS and then separately subjected to capsaicin at either 3 or 0.3 μM concentrations. Calcium flux following the application of each concentration of capsaicin was measured at 2 Hz and graphed. Results were calibrated by adding 5 μM ionomycin to obtain the maximum fluorescence ratio, followed by addition of 10 mM EGTA to obtain the minimum fluorescence ratio. A Kd of FURA-2 for calcium of 224 nM was assumed.

TRPV1 [2] = target: T1, TRPV1; assay: Viral growth assay (vTT / vHG titers by plaque assay); format: cell-based
TRPV1 [3] = target: T1, TRPV1; assay: Capsaicin selection against vTT in mixed vHG:vTT infections; format: cell-based
rat TRPV1 receptor = rat TRPV1 receptor (Rattus norvegicus, UniProt O35433); assay: Whole cell patch clamp recordings of capsaicin induced currents
Chain of rat TRPV1 receptor (O35433 whole entry): as above

[4] = vTT infected cells, mean±SEM, n=8
[5] = vTT infected 7b cells, 5 μM ionomycin
[6] = vTT infected cells, BIM pre-incubation, n=3

O=C(O)CN(CCOCCOCCN(CC(=O)O)CC(=O)O)CC(=O)O [EGTA]
intracellular calcium signal after capsaicin and ionomycin (TRPV1 [1]; vTT infected 7b cells, 10 mM EGTA): return to baseline levels

C=C(C)[C@]12C[C@@H](C)[C@@]34O[C@](Cc5ccccc5)(O[C@@H]1[C@@H]3C=C(COC(=O)Cc1ccc(O)c(OC)c1)C[C@]1(O)C(=O)C(C)=C[C@@H]41)O2 [RTX, resiniferatoxin]
growth ratio (GR), highest observed difference (TRPV1 [2]; 1 μM RTX, 72 hpi, p<0.05, n=4): 474 | capsaicin dose relative to RTX dose giving similar reduction in vTT viral titers (TRPV1 [2]; nanomolar RTX, all time points): ~100 fold

COc1cccc(NC(=O)/C=C/c2ccc(Cl)cc2)c1 [SB-366791]
vTT viral titers in the presence of capsaicin (TRPV1 [2]; 1 μM and 10 μM SB-366791 + 0.5 μM capsaicin, all time points, p<0.05, n=4): dose dependent rescue | replication of control vector vHG (TRPV1 [2]; CAP and SB-366791 together): did not affect | replication of vHG or vTT, antagonist alone (TRPV1 [2]; SB-366791 alone at 1 and 10 μM): did not affect

COc1cc(CNC(=O)CCCC/C=C/C(C)C)ccc1O [capsaicin]
lowest concentration with significant differences in replication between vHG and vTT (TRPV1 [2]): 0.3 µM | vTT replication (TRPV1 [2]): specifically inhibited | vHG titers (TRPV1 [2]; 3 μM CAP alone): without affecting | growth ratio (GR), vHG to vTT virus yield, greatest differential (TRPV1 [2]; 3 μM capsaicin, 72 hpi, p<0.05, n=4): ~500 fold | vHG (GFP+) percent output after two passages (TRPV1 [3]; 3 μM capsaicin, 0.005% vHG input (1:20,000 vHG:vTT)): 95% | vHG (GFP+) percent output after one passage (TRPV1 [3]; 3 μM capsaicin, 0.005% vHG input (1:20,000 vHG:vTT), 72 hpi): 66% | vHG proportion after two passages (TRPV1 [3]; capsaicin, 1:100,000 vHG input): 40% | intracellular calcium response (TRPV1 [1]; QOZ (control) infected cells, 0.3 or 3 μM capsaicin): no effect | intracellular calcium (TRPV1 [1]; vTT infected 7b cells, 8 hpi, 3 μM capsaicin): significant increase | intracellular calcium response (TRPV1 [1]; vTT infected 7b cells, 0.3 μM capsaicin, versus 3 μM): smaller response | Capsaicin (nA) (rat TRPV1 receptor; no virus (uninfected cells)): No | response to capsaicin stimulation (rat TRPV1 receptor; vHG (control) infected 7b cells): do not respond; also recorded: did not respond | Capsaicin (nA) (rat TRPV1 receptor; vHG infected cells): No | inward current following stimulation with capsaicin (rat TRPV1 receptor; vTT infected 7b cells, 0.5 μM capsaicin, FIG. 3 trace): 9 nA | Capsaicin (nA) (rat TRPV1 receptor; [4]): −6.0 ± 0.6 nA | Capsaicin Desensitization Time-course (tau, s) (rat TRPV1 receptor; [4]): 280.6 ± 45.1 s

C[C@H](CCC(=O)O)C[C@H](C)C[C@H](C)C(=O)/C=C(\O)[C@H](C)C[C@H](C)C/C=C/[C@@H](C)[C@@H](O)[C@@H](C)[C@@H](O)C[C@@H]1CC[C@@](C)([C@H]2CC[C@@](C)([C@@H](C)O)O2)O1 [ionomycin]
calcium influx (TRPV1 [1]; QOZ infected cells, 5 μM ionomycin): maximal calcium influx | intracellular calcium response after 0.3 μM capsaicin (TRPV1 [1]; [5]): further increased | intracellular calcium response after 3 μM capsaicin (TRPV1 [1]; [5]): did not further increase

CN(C)CCCn1cc(C2=C(c3c[nH]c4ccccc34)C(=O)NC2=O)c2ccccc21.Cl [BIM, bisindolylmaleimide I HCl]
effect of pre-incubation on capsaicin currents (rat TRPV1 receptor; vTT infected 7b cells, compared to BIM untreated): significantly lower amplitude and rapidly desensitizing currents | Capsaicin (nA) (rat TRPV1 receptor; [6]): −2.2 ± 1.2 nA | Capsaicin Desensitization Time-course (tau, s) (rat TRPV1 receptor; [6]): 53.4 ± 15.4 s

N.N.N.N.N.N.N.N.N.N.N.N.N.N.[Cl-].[Cl-].[Cl-].[Cl-].[Cl-].[Cl-].[O-2].[O-2].[Ru+3].[Ru+3].[Ru+4] [ruthenium red]
replication of vTT in the presence of capsaicin (TRPV1 [2]): completely restored | vector replication, antagonist alone (TRPV1 [2]): unaffected | antagonism of capsaicin-induced vTT specific currents (rat TRPV1 receptor; vTT infected 7b cells, RuR 5 μM in FIG. 3): brought the current back to baseline; also recorded: antagonized

CCCC(=O)O[C@@H]1[C@@H](C)[C@@]2(O)[C@@H](C=C(CO)C[C@]3(O)C(=O)C(C)=C[C@@H]23)[C@@H]2C(C)(C)[C@]12OC(=O)CCC [PDBu, phorbol 12,13-dibutyrate]
effect on capsaicin current after the first phase of desensitization (rat TRPV1 receptor; vTT infected 7b cells, PDBu 5 μM): did not affect the current; also recorded: could not be enhanced
